We go through 1 substance from patent publication US20180055915A1, “COMPOSITIONS AND METHODS FOR TREATING PROSTATE CANCER” (UNIVERSITY OF ROCHESTER, priority 2016, published 2018).

pIC50: −log10 of the molar value.

Test [1] has as its system AR-ubiquitin complex. The test is described as follows: AR-ubiquitination immunoprecipitation in 293T cells. The note with it: 293T cells with AR and ubiquitin-GPF, FIG. 4D. The format is cell-based, human. As for the experimental part:
Then examined was whether ubiquitination involves in ARv7 (and AR) degradation. First added were AR and ubiquitin-GPF in 293T cells, and then applied the immunoprecipitation assay to examine Cis effect on AR-ubiquitination.
(§1) For protein degradation, EnzR C4-2 cells were treated with 1 μg/mL Cisplatin for 6 hr. Cycloheximide or MG132 was added for another 4 hrs. For ubiquitination, human kidney epithelial HEK293T cells were grown in DMEM media with 10% FCS. Cells were plated at ˜60% confluency and pGFP-ubiquitin, pAR were transiently transfected into cells using CaCl2 reagent. After 48 hrs. of transfection, cells were treated with 1 μg/mL Cisplatin for 6 hrs. […], MG132, was added for another 4 hrs. Cell extracts were analyzed for AR degradation or AR-ubiquitination by using western blot.

Test [2] has as its system AR mRNA. The test is described as follows: AR mRNA expression (real-time PCR). The note with it: FIG. 5A. In kind it is cell-based. The method, then:
(§2) Total RNAs were isolated using Trizol reagent (Invitrogen, Grand Island, N.Y.). 2 μg of total RNA was subjected to reverse transcription using Superscript III transcriptase (Invitrogen). Quantitative real-time PCR (qRT-PCR) was conducted using a Bio-Rad CFX96 system with SYBR green to determine the mRNA expression level of a gene of interest. Expression levels were normalized to the expression of GAPDH.
For orientation: In qPCR the cycle at which signal appears reflects the starting amount.

Test [3] relates to EnzR1-C4-2 cells. Kind of test: MTT cell proliferation assay, EnzR1-C4-2. The format is cell-based. The method, then:
Cells were seeded in 24-well plates (5×10^3 cells/500 μL media per well) and cultured for 0, 2, 4 and 6 days. Cells were harvested and cell numbers and absorbance were calculated and recorded after using yellow tetrazolium MTT (3-(4, 5-dimethylthiazolyl-2)-2,5-diphenyltetrazolium bromide agent.

For test [4], the system named is AR. Kind of test: AR protein expression/degradation in CRPC cells (western blot). In kind it is cell-based. The method, then: To further dissect the mechanism(s) why Cis can decrease ARv7 (and AR) protein expression, first assayed was the Cis effects on ARv7 (and AR) protein stability with protein biosynthesis inhibitor, cycloheximide (CHX) and proteasome inhibitor MG132 in EnzR2-CWR22Rv1 cells.
as §1
(§3) Cells were lysed in lysis buffer and proteins (50 μg) were separated on 10% SDS/PAGE gel and then transferred onto PVDF membranes (Millipore, Billerica, Mass.). After blocking membranes with 5% milk, they were incubated with appropriate dilutions of specific primary antibodies (anti-AR (N-20), anti-SF2, anti-GFP, anti-GAPDH, anti-a-tubulin). The blots were incubated with HRP-conjugated secondary antibodies and visualized using ECL system (Thermo Fisher Scientific, Rochester, N.Y.).
(A western blot detects proteins with antibodies after separation by electrophoresis.)

Test [5] relates to glucocorticoid receptor (GR). Kind of test: Glucocorticoid receptor expression. The format is cell-based.
For test [6], the system named is AR promoter. The test is described as follows: AR promoter luciferase assay (pAR-luc) in EnzR2-CWR22Rv1 cells. The format is cell-based. The note with it: 1 ug/mL Cis, FIG. 5B. From the text:
In addition to function via altering the AR-ubiquitination to decrease ARv7 (and AR) protein expression and modulating the Malat1/SF2 RNA splicing complex to decrease ARv7 mRNA biosynthesis/expression, it is interesting to see the potential 3rd molecular mechanism at transcriptional regulation to alter the AR expression for Cis to decrease ARv7 mRNA expression. […] A 3.6 kb AR promoter was then constructed into pGL3 luciferase vector (pAR-luc) and transfected pAR-luc into EnzR2-CWR22Rv1 cells for luciferase assay.

For test [7], the system named is estrogen receptor b (ERb). The test is described as follows: Estrogen receptor b expression. The format is cell-based.
Test [8] concerns EnzR2-CWR22Rv1 cells. Kind of test: Orthotopic EnzR xenograft in castrated nude mice. In kind it is in vivo.
Test [9] relates to cPARP. The test is described as follows: Cell apoptosis by cPARP level. In kind it is cell-based.
Test [10] has as its system SF2. Kind of test: SF2 protein level. The format is cell-based. The method, then: as §3
The test system of test [11] is lncRNA RP11-473I1.9. The test is described as follows: lncRNA RP11-473I1.9 expression (real-time PCR). The note with it: FIG. 4G. The format is cell-based. The method, then: as §2
Test [12] deals with T1, AR mutant AR876 (Homo sapiens, UniProt P10275, F877L).
T1 construct: expressed in transfected cells; host or cells: PC3
T1 sequence (P10275 1-920 F877L): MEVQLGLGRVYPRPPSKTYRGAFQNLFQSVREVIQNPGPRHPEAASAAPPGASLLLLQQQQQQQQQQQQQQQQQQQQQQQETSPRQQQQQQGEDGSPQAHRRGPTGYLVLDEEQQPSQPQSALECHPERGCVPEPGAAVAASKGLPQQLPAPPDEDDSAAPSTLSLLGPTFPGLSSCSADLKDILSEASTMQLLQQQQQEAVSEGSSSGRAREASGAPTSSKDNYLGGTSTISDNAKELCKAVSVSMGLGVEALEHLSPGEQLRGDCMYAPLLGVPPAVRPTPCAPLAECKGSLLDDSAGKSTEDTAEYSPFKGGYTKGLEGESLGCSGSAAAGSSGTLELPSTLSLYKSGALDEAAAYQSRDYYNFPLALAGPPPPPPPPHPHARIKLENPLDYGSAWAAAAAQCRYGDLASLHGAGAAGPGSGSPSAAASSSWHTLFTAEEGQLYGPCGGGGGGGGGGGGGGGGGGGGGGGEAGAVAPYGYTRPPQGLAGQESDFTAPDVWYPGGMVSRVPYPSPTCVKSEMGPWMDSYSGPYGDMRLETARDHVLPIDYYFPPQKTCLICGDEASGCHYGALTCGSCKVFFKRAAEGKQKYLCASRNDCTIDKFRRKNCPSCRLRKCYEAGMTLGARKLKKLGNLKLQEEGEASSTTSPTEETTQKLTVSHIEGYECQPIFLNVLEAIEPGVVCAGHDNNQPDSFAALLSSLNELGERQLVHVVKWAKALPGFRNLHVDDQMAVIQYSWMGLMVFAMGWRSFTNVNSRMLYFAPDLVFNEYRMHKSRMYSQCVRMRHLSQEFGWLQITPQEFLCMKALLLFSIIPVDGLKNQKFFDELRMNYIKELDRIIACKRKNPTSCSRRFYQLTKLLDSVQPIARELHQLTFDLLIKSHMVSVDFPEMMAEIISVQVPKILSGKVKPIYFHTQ
The test is described as follows: AR876 expression in PC3 cells stably transfected with AR876-cDNA. The note with it: FIG. 1G. In kind it is cell-based. The method, then:
as §3

Setting [13] is: EnzR3-C4-2 cells, Cis at 1 ug/mL, FIG. 2J.
The mark [14] stands for this setting: EnzS1-C4-2 cells, Cis at 1-2 ug/mL, FIG. 2I.

For orientation: pIC50 means the negative decadic logarithm of the IC50, by convention in mol/L.

Sequence of SF2 (Q07955 whole entry): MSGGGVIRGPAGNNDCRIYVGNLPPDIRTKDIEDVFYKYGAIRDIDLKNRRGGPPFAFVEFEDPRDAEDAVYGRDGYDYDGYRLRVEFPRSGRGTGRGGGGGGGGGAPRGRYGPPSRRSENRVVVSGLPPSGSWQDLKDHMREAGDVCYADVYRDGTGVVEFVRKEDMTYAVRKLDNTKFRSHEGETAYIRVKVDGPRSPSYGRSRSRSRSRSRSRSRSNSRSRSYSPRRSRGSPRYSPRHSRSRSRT

Regarding “(SP-4-2)-diamminedichloroplatinum(II) [Cis]”, the AR-ubiquitin complex entry in test [1] is reported as “may increase the AR-ubiquitin complex”. In addition, the “AR mRNA” value in [2] is recorded as “could also decrease AR mRNA in a dose-dependent manner”. For the same substance, in test [3] (20 uM Enz combined with 2 ug/mL (6.6 uM) Cis, FIG. 2B), the “suppression of cell growth” value is given as “could suppress EnzR1-C4-2 cell growth”. The “IC50 (cell growth)” value in test [3] (Cis combined with 20 uM Enz, FIG. 2C) was approximately 5 µg/mL. Moreover, the pIC50 in [3] (Cis combined with 20 uM Enz, FIG. 2C, read-out: IC50 (cell growth)) is approximately 4.78. The AR expression entry in test [4] (EnzR1-C4-2 cells, FIG. 1B) is given as “could suppress the AR”; in [4] (EnzS1-C4-2 cells, FIG. 1A), “could suppress the AR”. In addition, the AR protein degradation entry in test [4] (EnzR2-CWR22Rv1 cells, after 6 hrs treatment, FIG. 4A) was “could degrade ARv7 (and AR)”. Moreover, the AR degradation entry was “may degrade AR” in test [4] (setting [13]) and “could degrade AR” in [4] (setting [14]). For the same substance, the GR expression result in [5] is reported as “little effect to decrease”. Further, the “AR promoter activity (pAR-luc luciferase)” value in [6] was “can also decrease AR mRNA expression at transcriptional level via altering AR promoter activity”. For the same substance, the ERb expression entry in test [7] was “little effect to decrease”. Further, the tumor progression entry in [8] (Enz 3.5 mg/kg every other day i.p. with vs without Cis 3.5 mg/kg weekly i.v., 3 weeks) is reported as “can increase/restore the Enz sensitivity to further suppress the EnzR3-C4-2B tumor progression”. In [8] (tumor received Cis+Enz), the “tumor expression of ARv7 (and AR), Malat1 and SF2 (immunohistochemistry)” value is “lower expression of ARv7 (and AR), as well as Malat1 and SF2”. Moreover, the “cell apoptosis (cPARP)” value in test [9] (setting [13]) and in test [9] (setting [14]) was “little change in cPARP” in each case. Moreover, the SF2 protein expression entry in [10] was “may decrease SF2 protein expression in a dose-dependent manner”. Further, in test [11], the “lncRNA RP11-473I1.9 expression” value is recorded as “little effect”. Further, the AR876 expression result in test [12] is reported as “can also decrease”.
